Structures can show the parent of a compound that is named as a salt. Where two headings read alike, the source gives them in different places.
Tests used:
immobilized femur [1] = settings: days -2 and -1, 10 days after surgery, n = 5
Experimental: Immobilization was produced by unilateral hind limb sciatic neurectomy. Ten days after surgery the rats were sacrificed, hind limbs removed, and the femora ashed at 700° C. for 24 hours. Ash weight was determined and the difference between the ash weight of the intact limb and immobilized limb calculated and expressed as the mg difference. Per cent difference was calculated as the % difference in ash weight between the intact and immobilized limb.
(§1) mg Diff = difference in ash weight between the intact femur and the
(§2) se = standard error of the mean
(§3) % Bone Loss = ash weight difference between the intact femur and the
(§4) immobilized femur divided by the ash weight of the intact femur

immobilized femur [2] = settings: days -4 and -3, 10 days after surgery, n = 5
Experimental: On day 0 all rats underwent surgery whereby the sciatic nerve of the right hind limb was severed. Ten days following immobilization surgery, the rats were sacrificed and hind limbs removed. The femora were defleshed, maximum femoral length of both femora measured and then placed in a muffle furnace at 700° C. for 24 hours.
as §1, §2, §3, §4

rat paw = assay: Local Irritation Study/Rat Paw Licking Response Test; settings: suspension vs solution of the (ABP)Na salt
[3] = in vivo
[4] = 0.0001 mg P/kg s.c., monocalcium salt
[5] = 0.001 mg P/kg s.c., monocalcium salt
[6] = 0.01 mg P/kg s.c., monocalcium salt
[7] = 0.1 mg P/kg s.c., monocalcium salt
[8] = 2 × 0.1 mg P/kg s.c., monocalcium salt
[9] = 2 × 1.0 mg P/kg s.c., monocalcium salt
[10] = 0.0001 mg P/kg s.c., monosodium salt
[11] = 0.001 mg P/kg s.c., monosodium salt
[12] = 0.01 mg P/kg s.c., monosodium salt
[13] = 0.1 mg P/kg s.c., monosodium salt
[14] = 2 × 0.1 mg P/kg s.c., monosodium salt

NCCCC(O)(P(=O)(O)O)P(=O)(O)O [(ABP)2 Ca, di[(4-amino-1-hydroxybutylidene)-1,1-bisphosphonic acid] monocalcium salt]
% Bone Loss (immobilized femur [1]; [4]): 8.93% | mg Diff (difference in ash weight between the intact femur and the immobilized femur) (immobilized femur [1]; [4]): 29.64 mg | % Bone Loss (immobilized femur [1]; [5]): 6.58% | mg Diff (difference in ash weight between the intact femur and the immobilized femur) (immobilized femur [1]; [5]): 22.00 mg | % Bone Loss (immobilized femur [1]; [6]): 3.64% | mg Diff (difference in ash weight between the intact femur and the immobilized femur) (immobilized femur [1]; [6]): 12.62 mg | % Bone Loss (immobilized femur [1]; [7]): 4.14% | mg Diff (difference in ash weight between the intact femur and the immobilized femur) (immobilized femur [1]; [7]): 11.32 mg | % Bone Loss (immobilized femur [2]; [8]): 1.93% | mg Diff (difference in ash weight between the intact femur and the immobilized femur) (immobilized femur [2]; [8]): 6.50 mg | % Bone Loss (immobilized femur [2]; [9]): 2.09% | mg Diff (difference in ash weight between the intact femur and the immobilized femur) (immobilized femur [2]; [9]): 7.38 mg | Paw licking responses and tolerability, in words (rat paw): induced a lower number of responses and were better tolerated than the solution of the (ABP)Na salt

NCCCC(O)(P(=O)(O)O)P(=O)(O)O [(ABP)3 Ca4, tri[(4-amino-1-hydroxybutylidene)-1,1-bisphosphonic acid] tetracalcium salt]
% Bone Loss (immobilized femur [2]; 2 × 0.1 mg P/kg s.c.): 2.48% | mg Diff (difference in ash weight between the intact femur and the immobilized femur) (immobilized femur [2]; 2 × 0.1 mg P/kg s.c.): 7.68 mg | % Bone Loss (immobilized femur [2]; 2 × 1.0 mg P/kg s.c.): 1.22% | mg Diff (difference in ash weight between the intact femur and the immobilized femur) (immobilized femur [2]; 2 × 1.0 mg P/kg s.c.): 3.94 mg | Paw licking responses and tolerability, in words (rat paw): induced a lower number of responses and were better tolerated than the solution of the (ABP)Na salt

NCCCC(O)(P(=O)(O)O)P(=O)(O)O [(ABP)Ca, [(4-amino-1-hydroxybutylidene)-1,1-bisphosphonic acid] monocalcium salt]
% Bone Loss (immobilized femur [1]; [4]): 9.34% | mg Diff (difference in ash weight between the intact femur and the immobilized femur) (immobilized femur [1]; [4]): 28.70 mg | % Bone Loss (immobilized femur [1]; [5]): 7.69% | mg Diff (difference in ash weight between the intact femur and the immobilized femur) (immobilized femur [1]; [5]): 25.98 mg | % Bone Loss (immobilized femur [1]; [6]): 5.01% | mg Diff (difference in ash weight between the intact femur and the immobilized femur) (immobilized femur [1]; [6]): 16.72 mg | % Bone Loss (immobilized femur [1]; [7]): 4.12% | mg Diff (difference in ash weight between the intact femur and the immobilized femur) (immobilized femur [1]; [7]): 13.24 mg | Systemic release of ABP [3]: slow systemic release | Level of the drug in the bloodstream ([3]; sc): never very high

NCCCC(O)(P(=O)(O)O)P(=O)(O)O [(ABP)Na, (4-amino-1-hydroxybutylidene)-1,1-bisphosphonic acid monosodium salt, reference compound]
% Bone Loss (immobilized femur [1]; [10]): 9.93% | mg Diff (difference in ash weight between the intact femur and the immobilized femur) (immobilized femur [1]; [10]): 31.14 mg | % Bone Loss (immobilized femur [1]; [11]): 5.95% | mg Diff (difference in ash weight between the intact femur and the immobilized femur) (immobilized femur [1]; [11]): 21.32 mg | % Bone Loss (immobilized femur [1]; [12]): 4.90% | mg Diff (difference in ash weight between the intact femur and the immobilized femur) (immobilized femur [1]; [12]): 18.72 mg | % Bone Loss (immobilized femur [1]; [13]): 4.15% | mg Diff (difference in ash weight between the intact femur and the immobilized femur) (immobilized femur [1]; [13]): 14.10 mg | Level of the drug in the bloodstream ([3]; iv): high level | % Bone Loss (immobilized femur [2]; [14]): 4.68% | mg Diff (difference in ash weight between the intact femur and the immobilized femur) (immobilized femur [2]; [14]): 14.62 mg

Reference: patent publication US5356887A, “Pharmaceutical compositions containing insoluble calcium salts of amino-hydroxybutylidene bisphoshonic acids” (Merck & Co., Inc., priority 1993, dated 1994)
